Assay results reported in patent publication US10987324B2, “Methods and compositions for the treatment of seizure-related disorders” (Adamas Pharmaceuticals, Inc., priority 2015, dated 2021).

Experiments:
[1] = tested on: motor coordination in rats; assay: Rotarod, ER profile vs IR profile of brivaracetam in rats (Example 16); assay type: in vivo
Experimental: The primary objective of this study is to compare the CNS side effects of brivaracetam when delivered as a continuous infusion to rats to simulate an extended release (ER) plasma profile or as a bolus to simulate an immediate release (IR) plasma profile. It is hypothesized that reducing the rate of rise of plasma concentrations with the ER profile compared to the IR profile results in reduced CNS impairment. CNS side effects are measured as an impairment of motor coordination in rodents using the rotarod. The rotarod (Ugo Basile, Italy) is a device that allows for quantitative measurement of motor coordination in rodents. Animals experiencing CNS side effects such as dizziness would fall off the rotarod faster than normal animals.
An acceleration protocol is used for training and test sessions, wherein the rotarod is accelerated from 0-40 rpm over a 5 minute session. All rats are then surgically implanted subcutaneously with programmable pumps (iPRECIO, Durect Corporation, Cupertino, Calif.), per the manufacturer's instructions, under anesthesia and using aseptic techniques.
Three days following pump implantation surgery, all rats are tested on the rotarod to obtain baseline performance values. […]
Animals that stay on the rotarod for the entire session are assigned a run-time of 300 seconds. The time that each animal stays on the rotarod prior to falling is automatically recorded. […]

[2] = cited from earlier work
[3] = Brivaracetam plasma pharmacokinetics, ER infusion vs IP bolus in rats (Example 16); assay type: in vivo; conditions: PK satellite rats
Experimental: To reproduce the plasma profile of ER brivaracetam (ER profile, group 2), rats are administered brivaracetam as a continuous infusion into the intraperitoneal (IP) space. […] Control animals (group 1) are infused with vehicle using the same infusion protocol. […] Control animals (group 3) were implanted with pumps containing vehicle and were given an IP bolus of vehicle.
In order to fully elucidate the plasma concentration-time profile of brivaracetam administered by the ER and IR protocols, two groups of PK satellite rats are administered brivaracetam using identical protocols to groups 2 and 4 above to reproduce the ER and IR profiles, respectively. Blood is collected at varying time points and the plasma brivaracetam concentrations are determined. No rotarod testing is performed on the PK satellite rats.

CCC[C@@H]1CC(=O)N([C@@H](CC)C(N)=O)C1 [brivaracetam, (2S)-2-[(4R)-2-oxo-4-propylpyrrolidin-1-yl]butanamide]
change from baseline in time on the rotarod vs vehicle ([1]; ER profile): not different between brivaracetam treated and vehicle animals
change in time on the rotarod vs vehicle ([1]; IR profile, IP bolus): greater reduction in time on the rotarod than matched vehicle controls
elimination / plasma / pharmacokinetic half-life ([2]; human): 7 to 8 h
fraction of dose unchanged in urine ([2]; in vivo): 5-8%
Tmax ([2]; oral dosing, human): approximately 2 hours
rate of rise of plasma concentration, ER profile as % of IR profile [3]: < 10%
